Several values for one entry are separate records, joined by “and”; a condition that tells them apart may be missing. Identical values can stand only once. Entries after “also recorded” stand apart in the source; their conditions may differ.
Columns and labels:
[1] = test system: bovine papilloma (wart) caused by BPV in front teats; assay: Therapeutic effect confirmation test performed on dairy cow having papilloma; format: in vivo, cow (female dairy cows)
[2] = test system: bovine papilloma (wart) caused by BPV in front teats; assay: as above; format: in vivo, cow (female dairy cows); parameters: key to Determination (pharmaceutical effect for each individual cow): Effective: Test section>Control section; Ineffective: Test section≤Control section
From the text: To female dairy cows (four), each having papillomas in both of front teats, an ointment agent containing Compound A was applied once a day to a papilloma (wart) of one of the front teats (test section). A dressing tape (Navis, PROSHARE Dressing Role, No. 8-5965-01) was applied around the teat after the application of the ointment agent to prevent external contamination. The ointment agent was applied over a surface of the teat at about 0.01 g to about 0.2 g (equivalent to the active ingredient of about 0.3 mg to about 6 mg) per 1 cm^2 of the surface area. The application (treatment) of 5-day administration with 2-day rest was continued for 4 weeks. The diseased part was imaged once a week. Pharmaceutical effects were evaluated based on a state of the diseased part (wart) four weeks after the start of the application.
Changes (size reduction/disappearance, no change, and growth/occurrence) of warts after four-week administration were evaluated with the following three-level evaluation scores. No change” includes the suppression of growth and being non-effective. “Occurrence” means that a new wart was generated during the four-week administration.
Size reduction/disappearance=+1, no change=0, and growth/occurrence=−1.
Further, scores were added for each individual cow, and pharmaceutical effects for each individual cow were determined based on the following criteria. • Effective: Test section>Control section • Ineffective: Test section≤Control section
When only small warts were targeted, the growth or size reduction of warts noticeably appear, which is considered to make it easier to determine the effects of Compound A. In view of this, only warts having a size of less than 5 mm before the application of an ointment agent were selected from the test sections and the control sections in the above-described confirmation test, and the ratio of warts that had smaller sizes or disappeared was calculated.

[3] = total of cows 01-04, ointment 3% by weight, 4 weeks

Question: Which results are given for `Fc1ccc(N2CCCCC2)c(NC(=S)c2ccncc2)c1` [Compound A, N-[5-fluoro-2-(1-piperidinyl)phenyl]-4-pyridinethioamide]?
Answer: Warts that disappeared among the additional reduced warts in the test section ([1]; administration continued for a further four weeks after the four-week administration): two; Additional warts with reduced size in the test section ([1]; administration continued under the same conditions for a further four weeks after the four-week administration): four; Ratio of warts that had smaller sizes or disappeared ([2]; Evaluation Method 2: only warts of less than 5 mm before application, 14 warts in the test sections, control sections 0%): 28.6%; Overall judgement of the ointment agent containing Compound A ([2]; based on the total scores and on the individual cow evaluations, 4 weeks): considered effective; Cases (cows) determined effective out of four cases ([2]; four cows, 4 weeks, ointment 3% by weight): Effective in three; State of diseased part in a test section (FIG. 2 images) ([2]; from before the start of administration to after the end of administration): warts disappeared; Test section Growth/Occurrence (evaluation score) ([2]; per individual cow, ointment (Compound A: 3% by weight) applied once a day to teat wart, 4 weeks, growth/occurrence=−1 per wart): 0 (3×) and −6; Test section Size reduction/Disappearance (evaluation score) ([2]; per individual cow, ointment (Compound A: 3% by weight, white petrolatum) applied once a day to teat wart, 5-day administration with 2-day rest, 4 weeks, size reduction/disappearance=+1 per wart): +1 (2×) and +3 and +2; Determination (pharmaceutical effect for each individual cow) ([2]; per individual cow, test section score versus control section (ointment base) score, 4 weeks): Ineffective; also recorded: Effective; Effectiveness score Test section ([2]; scores added for each individual cow, ointment 3% by weight, 4 weeks): +1 (2×) and −3 and +2; Test section Growth/Occurrence, Total of four cows [2, 3]: −6; Test section Size reduction/Disappearance, Total of four cows [2, 3]: +7; Effectiveness score Test section, Total ([2]; total of four cows, control sections total −8, 4 weeks): +1
